From publication PMC10817531, “Chlorinated Enyne Fatty Acid Amides from a Marine Cyanobacterium: Discovery of Taveuniamides L-M and Pharmacological Characterization of Taveuniamide F as a GPCR Antagonist with CNR1 Selectivity” (Marine Drugs, 2023) come the findings set out here.

Several values for one entry are separate records, joined by “and”; a condition that tells them apart may be missing. Identical values can stand only once.

What all share (assay type): cell-based
The target in test [1] is T1, CNR1 (Homo sapiens, UniProt P21554).
T1 construct: host or cells: CHO-K1
T1 sequence (P21554 whole entry): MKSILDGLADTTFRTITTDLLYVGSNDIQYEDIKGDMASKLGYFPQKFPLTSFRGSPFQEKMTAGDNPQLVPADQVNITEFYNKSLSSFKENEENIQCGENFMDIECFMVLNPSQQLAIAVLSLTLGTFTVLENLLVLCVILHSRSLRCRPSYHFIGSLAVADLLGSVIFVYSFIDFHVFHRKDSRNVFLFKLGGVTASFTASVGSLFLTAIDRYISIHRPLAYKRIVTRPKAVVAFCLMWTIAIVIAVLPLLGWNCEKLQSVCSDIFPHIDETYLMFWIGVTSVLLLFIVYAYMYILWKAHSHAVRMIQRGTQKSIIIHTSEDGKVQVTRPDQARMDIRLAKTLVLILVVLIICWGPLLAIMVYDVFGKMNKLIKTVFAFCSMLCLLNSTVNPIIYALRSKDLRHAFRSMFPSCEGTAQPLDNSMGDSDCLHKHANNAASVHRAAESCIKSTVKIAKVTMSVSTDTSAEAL
Kind of test: PathHunter β-arrestin GpcrMAX assay. The procedure: (§1) GpcrMAX panel biosensor assays were used to characterize taveuniamide F (4, 20 µM) (agonist and antagonist mode). The experiments were carried out by DiscoveRx Corporation (Fremont, CA, USA) as described before, using PathHunter β-arrestin enzyme fragment complementation (EFC) technology.
(§2) Dose–response curves were obtained by subjecting taveuniamide F (4) to a secondary antagonist screen utilizing ten GPCR biosensor assays (Arrestin) against the following targets: GPR119, NPSR1b, HTR2C, CCR9, CHRM4, GPR120, HTR2A, GPR103, CNR1, and CNR2. Stably transfected HEK293 cells expressing GPR119, U2OS cells expressing NPSR1b, HTR2C and HTR2A, and CHO-K1 cells expressing the rest of the mentioned receptors, were incubated with 4 for 30 min. The assays were performed at 10-point concentrations using 3-fold serial dilutions in duplicate, where the highest concentration was 50 µM.

Test [2] addresses T2, GPR120 (Homo sapiens, UniProt Q5NUL3).
T2 construct: host or cells: CHO-K1
T2 sequence (Q5NUL3 1-361): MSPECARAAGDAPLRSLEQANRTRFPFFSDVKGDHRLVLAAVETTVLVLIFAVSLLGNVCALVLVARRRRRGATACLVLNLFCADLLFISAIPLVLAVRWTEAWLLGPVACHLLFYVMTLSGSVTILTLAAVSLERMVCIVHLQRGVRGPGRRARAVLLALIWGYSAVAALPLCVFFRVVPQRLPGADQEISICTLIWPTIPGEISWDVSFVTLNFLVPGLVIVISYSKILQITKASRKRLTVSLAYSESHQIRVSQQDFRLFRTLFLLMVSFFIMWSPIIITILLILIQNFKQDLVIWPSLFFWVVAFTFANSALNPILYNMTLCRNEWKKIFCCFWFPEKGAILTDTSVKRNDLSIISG
The test can be described thus: PathHunter β-arrestin GpcrMAX assay. As to the method: as §1, §2

For test [3], the target named is T3, GPR103 (Homo sapiens, UniProt Q96P65).
T3 construct: host or cells: CHO-K1
T3 sequence (Q96P65 1-431): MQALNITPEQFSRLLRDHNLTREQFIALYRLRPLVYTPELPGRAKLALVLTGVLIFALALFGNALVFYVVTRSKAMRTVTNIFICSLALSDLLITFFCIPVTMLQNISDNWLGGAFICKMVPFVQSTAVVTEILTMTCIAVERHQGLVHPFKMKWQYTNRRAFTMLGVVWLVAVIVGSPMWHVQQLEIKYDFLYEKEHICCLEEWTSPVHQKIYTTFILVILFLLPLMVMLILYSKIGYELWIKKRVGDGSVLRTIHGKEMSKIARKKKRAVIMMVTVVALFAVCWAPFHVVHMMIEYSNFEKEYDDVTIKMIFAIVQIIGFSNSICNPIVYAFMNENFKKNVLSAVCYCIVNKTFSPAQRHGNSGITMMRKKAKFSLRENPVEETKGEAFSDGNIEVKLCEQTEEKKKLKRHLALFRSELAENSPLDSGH
The test can be described thus: PathHunter β-arrestin GpcrMAX assay. As to the method:
as §1, §2

In test [4] the target is T4, CNR2 (Homo sapiens, UniProt P34972).
T4 construct: purchased DiscoveRx (Eurofins) gpcrMAX PathHunter β-arrestin panel
T4 sequence (P34972 whole entry): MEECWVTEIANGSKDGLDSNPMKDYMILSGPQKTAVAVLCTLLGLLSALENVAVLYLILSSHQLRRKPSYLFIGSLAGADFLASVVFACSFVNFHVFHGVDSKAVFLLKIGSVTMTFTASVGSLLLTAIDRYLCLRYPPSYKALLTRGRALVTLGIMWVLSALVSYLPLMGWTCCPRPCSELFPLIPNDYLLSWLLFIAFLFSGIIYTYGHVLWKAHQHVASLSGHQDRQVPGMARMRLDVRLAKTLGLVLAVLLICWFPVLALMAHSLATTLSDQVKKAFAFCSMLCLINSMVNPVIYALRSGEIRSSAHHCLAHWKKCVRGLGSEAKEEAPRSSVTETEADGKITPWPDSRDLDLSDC
Kind of test: PathHunter β-arrestin GpcrMAX assay. As to the method: as §1, §2

The target in test [5] is T5, CCR9 (Homo sapiens, UniProt P51686).
T5 construct: host or cells: CHO-K1
T5 sequence (P51686 1-369): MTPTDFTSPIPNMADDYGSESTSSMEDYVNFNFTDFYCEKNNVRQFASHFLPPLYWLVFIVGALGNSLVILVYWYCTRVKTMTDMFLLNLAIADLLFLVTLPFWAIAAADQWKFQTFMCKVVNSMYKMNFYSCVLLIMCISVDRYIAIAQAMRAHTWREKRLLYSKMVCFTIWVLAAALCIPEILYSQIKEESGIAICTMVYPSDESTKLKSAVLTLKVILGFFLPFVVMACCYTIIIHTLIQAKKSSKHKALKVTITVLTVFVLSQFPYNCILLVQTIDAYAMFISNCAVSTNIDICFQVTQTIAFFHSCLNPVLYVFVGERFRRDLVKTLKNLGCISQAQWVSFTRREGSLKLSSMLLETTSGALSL
The test can be described thus: PathHunter β-arrestin GpcrMAX assay. As to the method: as §1, §2

Test [6] has as its target T6, HTR2A (Homo sapiens, UniProt P28223).
T6 construct: host or cells: U2OS
Kind of test: PathHunter β-arrestin GpcrMAX assay. The procedure:
as §1, §2

The target of test [7] is T1, CNR1. Kind of test: cAMP Hunter eXpress CNR1 (CB1) CHO-K1 GPCR assay. The procedure:
The experiments (agonist and antagonist mode) were carried out by DiscoveRx Corporation (Fremont, CA, USA). Human CNR1 in stably transfected CHO-K1 cells were seeded in a total volume of 20 μL into white-walled, 384-well microplates and incubated at 37 °C overnight. Before testing, cell plating media was exchanged with 10 μL of assay buffer (HBSS + 10 mM HEPES).
As described in catalog ref. (86-0007P-2277AG) for the agonist mode, intermediate dilution of sample stocks was performed to generate 4× samples in assay buffer. A total of 5 μL of 4× sample and 5 μL of 4× forskolin were added to cells and incubated at 37 °C for 30 min. The final assay vehicle concentration was 1%. The results are expressed as a percent efficacy relative to the maximum response of the control ligand.
As described in catalog ref. (86-0007P-2277AN) for the antagonist mode, intermediate dilution of sample stocks was performed to generate 4× samples in assay buffer. A total of 5 μL of 4X sample was added to cells and incubated at 37 °C for 30 min, and 5uL of 4× EC80 of CP55940 in 4× forskolin reagent was added and cells incubated for 37 °C for 30 min. The final assay vehicle concentration was 1%. The results are expressed as a percent inhibition of the control ligand. The assays were performed at 10-point concentrations of 4 using 3-fold serial dilutions in duplicate, where the highest concentration was 50 µM.

Setting [8] is: antagonist dose–response, 10-point, CHO-K1 cells, 30 min.
Setting [9] is: antagonist mode (% inhibition), 20 µM.

T6 sequence (P28223 whole entry): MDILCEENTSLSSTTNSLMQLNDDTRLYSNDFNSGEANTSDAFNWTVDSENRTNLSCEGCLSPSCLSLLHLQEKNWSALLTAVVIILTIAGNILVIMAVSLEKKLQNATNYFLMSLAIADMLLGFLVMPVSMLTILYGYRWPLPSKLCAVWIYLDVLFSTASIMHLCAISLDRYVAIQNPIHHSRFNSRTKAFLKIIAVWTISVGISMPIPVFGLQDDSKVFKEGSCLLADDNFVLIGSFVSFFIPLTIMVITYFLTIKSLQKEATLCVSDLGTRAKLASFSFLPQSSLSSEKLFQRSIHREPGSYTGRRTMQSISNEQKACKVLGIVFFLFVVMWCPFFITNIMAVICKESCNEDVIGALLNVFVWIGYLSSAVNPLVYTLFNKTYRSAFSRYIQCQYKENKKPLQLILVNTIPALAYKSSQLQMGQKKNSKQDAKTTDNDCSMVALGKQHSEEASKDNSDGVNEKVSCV

Turning to `CC(=O)N[C@@H](CCCC#C/C=C/Cl)CCCCCCC(Cl)Cl` [Compound 4, taveuniamide F], the IC50 was 1.84 µM in test [1] (setting [8]); 4.7 µM and 4.72 µM in test [2] (setting [8]); 14 µM and 14.1 µM in test [3] (setting [8]); 7.4 µM and 7.38 µM in test [5] (setting [8]); 4.8 µM and 4.83 µM in test [6] (antagonist dose–response, 10-point, U2OS cells, 30 min); 21 µM in test [7] (antagonist mode, EC80 of CP55940, forskolin, CHO-K1 cells, read-out: IC50, inhibition of CNR1-agonist-induced cAMP downregulation). Besides, the inhibition in test [1] (setting [9]), in test [2] (setting [9]), in test [3] (setting [9]), in test [5] (setting [9]) and in test [6] (setting [9]) was at least 80% each time. The inhibition at 20 µM in test [1] (setting [9]) turned out to be 84%; in test [2] (setting [9]), 96.9%; in test [3] (setting [9]), 79.8%; in test [4], 48.6%; in test [5] (setting [9]), 98.9%; in test [6] (setting [9]), 84.9%. Also, the “selectivity for CNR1 over CNR2” value in test [1] (antagonist screen (β-arrestin), CNR1 vs. CNR2) is given as 6.8 fold. The “mode of activity in CNR1 cAMP functional assay” value in test [7] (agonist and antagonist mode) is recorded as “antagonist/inverse agonist”.

In general, IC50 refers to the concentration needed to halve the response being measured. A word on the inhibition: it is how much of the control response was suppressed. The low end stands for little suppression, the high end for strong suppression.
